Measured values taken from PMC5689723, “Targeting aggressive prostate cancer-associated CD44v6 using phage display selected peptides” (Oncotarget, 2017).

Test system: v6A3 cells
Test: MTT assay, v6A3 cells
Format: cell-based
Settings: Homo sapiens, PC-3M, 48 h, 5000 cells per well, triplicate, 562 nm, after continuous passage for one month, P< 0.05 vs PC3M, read-out: DOX IC50 of v6A3

COc1cccc2c1C(=O)c1c(O)c3c(c(O)c1C2=O)C[C@@](O)(C(=O)CO)C[C@@H]3O[C@H]1C[C@H](N)[C@H](O)[C@H](C)O1 [DOX, doxorubicin]
IC50: 140 nM
